Experimental data from patent US7304174B2, “CaSR antagonist” (Japan Tobacco Inc., priority 2003, dated 2007).

target: T1, human calcium receptor (Homo sapiens, UniProt P41180); assay: Evaluation of antagonistic action on calcium receptor using reporter gene (luciferase); format: cell-based; conditions: transformed rat adrenal derived cells, 5 mM calcium chloride, culture 4 hrs, luciferase activity; read-out: Reporter gene assay (IC50, concentration showing 50% inhibitory rate)
T1 construct: expressed in transfected cells; host or cells: cell strain derived from rat adrenal, co-transformed with luciferase cDNA
T1 sequence (P41180 20-1078): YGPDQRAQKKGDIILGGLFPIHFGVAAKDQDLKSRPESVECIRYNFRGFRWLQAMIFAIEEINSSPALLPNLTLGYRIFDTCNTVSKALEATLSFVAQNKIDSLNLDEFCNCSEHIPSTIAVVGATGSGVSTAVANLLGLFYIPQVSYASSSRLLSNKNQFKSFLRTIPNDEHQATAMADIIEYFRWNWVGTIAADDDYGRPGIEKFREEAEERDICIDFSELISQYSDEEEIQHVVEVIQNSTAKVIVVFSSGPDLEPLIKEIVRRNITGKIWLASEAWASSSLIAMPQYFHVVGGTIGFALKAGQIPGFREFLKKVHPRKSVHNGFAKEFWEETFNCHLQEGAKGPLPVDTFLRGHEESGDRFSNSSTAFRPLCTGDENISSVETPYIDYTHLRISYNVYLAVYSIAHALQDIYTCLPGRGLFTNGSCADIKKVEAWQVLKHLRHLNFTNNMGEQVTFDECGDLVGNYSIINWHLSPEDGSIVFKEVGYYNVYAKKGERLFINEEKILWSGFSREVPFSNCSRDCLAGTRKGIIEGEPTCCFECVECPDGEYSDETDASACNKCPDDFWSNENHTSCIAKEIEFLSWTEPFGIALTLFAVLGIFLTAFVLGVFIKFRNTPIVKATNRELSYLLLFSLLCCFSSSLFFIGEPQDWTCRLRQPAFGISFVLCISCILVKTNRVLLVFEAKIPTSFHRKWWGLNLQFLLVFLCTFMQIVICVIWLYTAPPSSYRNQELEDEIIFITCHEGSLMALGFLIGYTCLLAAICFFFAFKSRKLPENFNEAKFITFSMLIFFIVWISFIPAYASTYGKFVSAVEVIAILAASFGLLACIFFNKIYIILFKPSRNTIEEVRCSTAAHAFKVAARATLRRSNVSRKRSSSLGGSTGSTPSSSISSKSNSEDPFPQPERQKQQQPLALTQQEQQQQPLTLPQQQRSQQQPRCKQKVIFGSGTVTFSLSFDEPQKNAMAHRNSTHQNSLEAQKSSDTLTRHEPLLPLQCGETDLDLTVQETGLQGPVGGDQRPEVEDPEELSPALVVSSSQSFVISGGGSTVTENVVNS
Description: Evaluation of Antagonistic Action on Calcium Receptor Using Reporter Gene
Luciferase cDNA and human calcium receptor cDNA were introduced into a cell strain derived from rat adrenal to transform the cells, and the transformed cells were cultured in a medium (80 μl, F12 medium containing 0.5% dialyzed horse serum and 0.25% dialyzed bovine fetal serum). A dimethyl sulfoxide solution containing a test compound at 0.1-10000 μM was diluted 100-fold with the medium and added to the test compound group at 10 μl per well (dimethyl sulfoxide final concentration 0.1%). In the same manner as in test compound group, dimethyl sulfoxide 100-fold diluted with medium was added to a control group and a blank group. Then, 50 mM calcium chloride-containing medium was added to every well except the blank group at 10 μl per well (final concentration 5 mM). A medium containing 50 mM calcium chloride was added to the control group at 10 μl per well, such that the final calcium concentration of the medium became 5 mM. A medium alone was added to the blank group. After culture for 4 hrs, luciferase substrate was added and the luciferase activity was measured with a photoluminometer. The inhibitory rate (%) was calculated from the obtained measured values according to the following formula.
Based on the results, the concentration (IC50) showing 50% inhibitory rate was determined. The results are shown in the aforementioned Tables 1 to 60.

Row | SMILES | IC50
1 | Cc1cc(-c2ccccc2[C@@H](C)OC[C@H](O)CNC(C)(C)Cc2ccc3ccccc3c2)ccc1C(=O)O [Example 1-55, 3-methyl-2′-[1-[(2R)-3-[[1-(naphthalen-2-yl)-2-methylpropan-2-yl]amino]-2-hydroxypropoxy]ethyl]biphenyl-4-carboxylic acid] | 0.01 µM
2 | C[C@@H](OC[C@H](O)CNC(C)(C)Cc1ccc2ccccc2c1)c1ccccc1-c1ccc(F)c(C(=O)O)c1 [Example 1-56, 4-fluoro-2′-[1-[(2R)-3-[[1-(naphthalen-2-yl)-2-methylpropan-2-yl]amino]-2-hydroxypropoxy]ethyl]biphenyl-3-carboxylic acid] | 0.019 µM
3 | C[C@@H](OC[C@H](O)CNC(C)(C)Cc1ccc2ccccc2c1)c1ccccc1-c1cc(C(=O)O)ccc1F [Example 1-58, 6-fluoro-2′-[1-[(2R)-3-[[1-(naphthalen-2-yl)-2-methylpropan-2-yl]amino]-2-hydroxypropoxy]ethyl]biphenyl-3-carboxylic acid] | 0.021 µM
4 | Cc1cc(-c2ccccc2[C@@H](C)OC[C@H](O)CNC(C)(C)Cc2cccc(Cl)c2)ccc1C(=O)O [Example 1-60, 2′-[1-[(2R)-3-[[1-(3-chlorophenyl)-2-methylpropan-2-yl]amino]-2-hydroxypropoxy]ethyl]-3-methylbiphenyl-4-carboxylic acid] | 0.096 µM
5 | Cc1cc(-c2ccccc2[C@@H](C)OC[C@H](O)CNC(C)(C)Cc2ccc(Cl)c(Cl)c2)ccc1C(=O)O [Example 1-61, 2′-[1-[(2R)-3-[[1-(3,4-dichlorophenyl)-2-methylpropan-2-yl]amino]-2-hydroxypropoxy]ethyl]-3-methylbiphenyl-4-carboxylic acid] | 0.004 µM
6 | C[C@@H](OC[C@H](O)CNC(C)(C)Cc1ccc2ccccc2c1)c1ccccc1-c1ccc(C(=O)O)cc1F [Example 1-62, 2-fluoro-2′-[1-[(2R)-3-[[1-(naphthalen-2-yl)-2-methylpropan-2-yl]amino]-2-hydroxypropoxy]ethyl]biphenyl-4-carboxylic acid] | 0.008 µM
7 | Cc1cc(-c2ccccc2C(OC[C@H](O)CNC(C)(C)Cc2ccc3ccccc3c2)C2CC2)ccc1C(=O)O (stereo partly drawn) [Example 1-63, 2′-[(cyclopropyl)[(2R)-3-[[1-(naphthalen-2-yl)-2-methylpropan-2-yl]amino]-2-hydroxypropoxy]methyl]-3-methylbiphenyl-4-carboxylic acid] | 0.016 µM
8 | CC(C)(Cc1ccc2ccccc2c1)NC[C@@H](O)COC(c1ccccc1-c1ccc(C(=O)O)c(F)c1)C1CC1 (stereo partly drawn) [Example 1-64, 2′-[(cyclopropyl)[(2R)-3-[[1-(naphthalen-2-yl)-2-methylpropan-2-yl]amino]-2-hydroxypropoxy]methyl]-3-fluorobiphenyl-4-carboxylic acid] | 0.017 µM
9 | CC(C)(Cc1ccc2ccccc2c1)NC[C@@H](O)COC(c1ccccc1-c1ccc(C(=O)O)cc1F)C1CC1 (stereo partly drawn) [Example 1-65, 2′-[(cyclopropyl)[(2R)-3-[[1-(naphthalen-2-yl)-2-methylpropan-2-yl]amino]-2-hydroxypropoxy]methyl]-2-fluorobiphenyl-4-carboxylic acid] | 0.016 µM
10 | Cc1cc(C(=O)O)ccc1-c1ccccc1C(OC[C@H](O)CNC(C)(C)Cc1ccc2ccccc2c1)C1CC1 (stereo partly drawn) [Example 1-66, 2′-[(cyclopropyl)[(2R)-3-[[1-(naphthalen-2-yl)-2-methylpropan-2-yl]amino]-2-hydroxypropoxy]methyl]-2-methylbiphenyl-4-carboxylic acid] | 0.017 µM
11 | C[C@@H](OC[C@H](O)CNC(C)(C)Cc1ccc(Cl)c(Cl)c1)c1ccccc1-c1ccc(C(=O)O)cc1F [Example 1-67, 2′-[1-[(2R)-3-[[1-(3,4-dichlorophenyl)-2-methylpropan-2-yl]amino]-2-hydroxypropoxy]ethyl]-2-fluorobiphenyl-4-carboxylic acid] | 0.019 µM
12 | C[C@@H](OC[C@H](O)CNC(C)(C)Cc1ccc2ccccc2c1)c1ccccc1-c1ccc(C(=O)O)c(Cl)c1 [Example 1-68, 3-chloro-2′-[1-[(2R)-3-[[1-(naphthalen-2-yl)-2-methylpropan-2-yl]amino]-2-hydroxypropoxy]ethyl]biphenyl-4-carboxylic acid] | 0.003 µM
13 | C[C@@H](OC[C@H](O)CNC(C)(C)Cc1ccc2ccccc2c1)c1ccccc1-c1ccc(C(=O)O)c([N+](=O)[O-])c1 [Example 1-69, 2′-[1-[(2R)-3-[[1-(naphthalen-2-yl)-2-methylpropan-2-yl]amino]-2-hydroxypropoxy]ethyl]-3-nitrobiphenyl-4-carboxylic acid] | 0.002 µM
14 | C[C@@H](OC[C@H](O)CNC(C)(C)Cc1ccc2ccccc2c1)c1ccccc1-c1ccc(C(=O)O)c(N)c1 [Example 1-70, 3-amino-2′-[1-[(2R)-3-[[1-(naphthalen-2-yl)-2-methylpropan-2-yl]amino]-2-hydroxypropoxy]ethyl]biphenyl-4-carboxylic acid] | 0.005 µM
15 | CC(=O)Nc1cc(-c2ccccc2[C@@H](C)OC[C@H](O)CNC(C)(C)Cc2ccc3ccccc3c2)ccc1C(=O)O [Example 1-71, 3-(acetylamino)-2′-[1-[(2R)-3-[[1-(naphthalen-2-yl)-2-methylpropan-2-yl]amino]-2-hydroxypropoxy]ethyl]biphenyl-4-carboxylic acid] | 0.005 µM
16 | Cc1ccc(CC(C)(C)NC[C@@H](O)CO[C@H](C)c2ccccc2-c2ccc(C(=O)O)c(Cl)c2)cc1F [Example 1-72, 3-chloro-2′-[1-[(2R)-3-[[1-(3-fluoro-4-methylphenyl)-2-methylpropan-2-yl]amino]-2-hydroxypropoxy]ethyl]biphenyl-4-carboxylic acid] | 0.015 µM
17 | C[C@@H](OC[C@H](O)CNC(C)(C)Cc1ccc2ccccc2c1)c1ccccc1-c1cc2c(c(C(=O)O)c1)OCC2 [Example 1-74, 2,3-dihydro-5-[2-[1-[(2R)-3-[[1-(naphthalen-2-yl)-2-methylpropan-2-yl]amino]-2-hydroxypropoxy]ethyl]phenyl]benzofuran-7-carboxylic acid] | 0.011 µM
18 | Cc1cc(C(=O)O)cc(C)c1-c1ccccc1[C@@H](C)OC[C@H](O)CNC(C)(C)Cc1ccc2ccccc2c1 [Example 1-75, 2,6-dimethyl-2′-[1-[(2R)-3-[[1-(naphthalen-2-yl)-2-methylpropan-2-yl]amino]-2-hydroxypropoxy]ethyl]biphenyl-4-carboxylic acid] | 0.012 µM
19 | Cc1ccc(CC(C)(C)NC[C@@H](O)CO[C@H](C)c2ccccc2-c2c(C)cc(C(=O)O)cc2C)cc1F [Example 1-76] | 0.022 µM
20 | C[C@@H](OC[C@H](O)CNC(C)(C)Cc1ccc2ccccc2c1)c1ccccc1-c1ccc(C(=O)O)c(N(C)C)c1 [Example 1-77, 3-(dimethylamino)-2′-[1-[(2R)-3-[[1-(naphthalen-2-yl)-2-methylpropan-2-yl]amino]-2-hydroxypropoxy]ethyl]biphenyl-4-carboxylic acid] | 0.021 µM
21 | Cc1ccc(CC(C)(C)NC[C@@H](O)CO[C@H](C)c2ccccc2-c2cc3c(c(C(=O)O)c2)OCC3)cc1F [Example 1-78, 2,3-dihydro-5-[2-[1-[(2R)-3-[[1-(3-fluoro-4-methylphenyl)-2-methylpropan-2-yl]amino]-2-hydroxypropoxy]ethyl]phenyl]benzofuran-7-carboxylic acid] | 0.02 µM
22 | Cc1ccc(CC(C)(C)NC[C@@H](O)CO[C@H](C)c2ccccc2-c2ccc(C(=O)O)c(Cc3ccccc3)c2)cc1F [Example 1-79, 3-benzyl-2′-[1-[(2R)-3-[[1-(3-fluoro-4-methylphenyl)-2-methylpropan-2-yl]amino]-2-hydroxypropoxy]ethyl]biphenyl-4-carboxylic acid] | 0.004 µM
